Test results from US20100298141A1, “SUBSTITUTED PYRIDINE N-OXIDE HERBICIDES” (E. I. DU PONT DE NEMOURS AND COMPANY, priority 2007, published 2010).

How the values were obtained:
[1] = tested on: barnyardgrass; assay: Test A pre-/postemergence greenhouse test; type: in vivo, Echinochloa crus-galli; details: for Plant response rating, Barnyardgrass: 0 to 100 scale where 0 is no effect and 100 is complete control; for Barnyardgrass plant response rating: 0 to 100 scale
Method in brief: (§1)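 Planting was into mixed loam soil and sand; preemergence treatment followed as a directed soil spray. Concurrently, emerged plants (one- to two-leaf, 2–10 cm) received postemergence applications of identically formulated compound (non-phytotoxic solvent, surfactant). After approximately ten days under greenhouse conditions, injury was judged by eye against untreated plants.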

[2] = tested on: crabgrass; assay: Test A pre-/postemergence greenhouse test; type: in vivo, Digitaria sanguinalis; details: for Plant response rating, Crabgrass, Large: 0 to 100 scale where 0 is no effect and 100 is complete control; for Crabgrass, Large plant response rating: 0 to 100 scale
Method in brief: as §1

[3] = tested on: giant foxtail; assay: Test A pre-/postemergence greenhouse test; type: in vivo, Setaria faberi; details: for Plant response rating, Foxtail, Giant: 0 to 100 scale where 0 is no effect and 100 is complete control; for Foxtail, Giant plant response rating: 0 to 100 scale
Method in brief: as §1

[4] = tested on: morningglory; assay: Test A pre-/postemergence greenhouse test; type: in vivo, Ipomoea spp.; details: for Plant response rating, Morningglory: 0 to 100 scale where 0 is no effect and 100 is complete control; for Morningglory plant response rating: 0 to 100 scale
Method in brief: as §1

[5] = tested on: redroot pigweed; assay: Test A pre-/postemergence greenhouse test; type: in vivo, Amaranthus retroflexus; details: for Plant response rating, Pigweed: 0 to 100 scale where 0 is no effect and 100 is complete control; for Pigweed plant response rating: 0 to 100 scale
Method in brief: as §1

[6] = tested on: velvetleaf; assay: Test A pre-/postemergence greenhouse test; type: in vivo, Abutilon theophrasti; details: for Plant response rating, Velvetleaf: 0 to 100 scale where 0 is no effect and 100 is complete control; for Velvetleaf plant response rating: 0 to 100 scale
Method in brief: as §1

[7] = tested on: wheat; assay: Test A pre-/postemergence greenhouse test; type: in vivo, Triticum aestivum; details: for Plant response rating, Wheat: 0 to 100 scale where 0 is no effect and 100 is complete control; for Wheat plant response rating: 0 to 100 scale
Method in brief: as §1

[8] = tested on: corn; assay: Test A pre-/postemergence greenhouse test; type: in vivo, Zea mays; details: for Plant response rating, Corn: 0 to 100 scale where 0 is no effect and 100 is complete control; for Corn plant response rating: 0 to 100 scale
Method in brief: as §1

[9] = tested on: rice; assay: Test C flooded paddy test; type: in vivo, Oryza sativa; details: Flood
Method in brief: (§2)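 Greenhouse pots flooded to 3 cm above soil at time of treatment received compound via the water, which stayed at that level.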

[10] = tested on: umbrella sedge; assay: Test C flooded paddy test; type: in vivo, Cyperus difformis; details: Flood
Method in brief: as §2

[11] = tested on: duck salad; assay: Test C flooded paddy test; type: in vivo, Heteranthera limosa; details: Flood
Method in brief: as §2

[12] = tested on: barnyardgrass; assay: Test C flooded paddy test; type: in vivo, Echinochloa crus-galli; details: Flood
Method in brief: as §2

[13] = Postemergence, 500 g ai/ha, 0 is no effect, 100 is complete control
[14] = Preemergence, 125 g ai/ha, 0 no effect, 100 complete control
[15] = Preemergence, 500 g ai/ha, 0 no effect, 100 complete control
[16] = 62 g ai/ha, scale 0 to 100 (0 no effect, 100 complete control)
[17] = 250 g ai/ha, scale 0 to 100, 0 no effect, 100 complete control, 13 to 15 days

Row | Compound | Plant response rating, Barnyardgrass ([1]; Postemergence, 125 g ai/ha) | Barnyardgrass plant response rating [1, 13] | Barnyardgrass plant response rating [1, 14] | Plant response rating, Crabgrass, Large ([2]; Postemergence, 125 g ai/ha) | Crabgrass, Large plant response rating [2, 13] | Crabgrass, Large plant response rating [2, 14] | Plant response rating, Foxtail, Giant ([3]; Postemergence, 125 g ai/ha) | Foxtail, Giant plant response rating [3, 13] | Foxtail, Giant plant response rating [3, 14] | Plant response rating, Morningglory ([4]; Postemergence, 125 g ai/ha) | Morningglory plant response rating [4, 13] | Morningglory plant response rating [4, 14] | Plant response rating, Pigweed ([5]; Postemergence, 125 g ai/ha) | Pigweed plant response rating [5, 13] | Pigweed plant response rating [5, 14] | Plant response rating, Velvetleaf ([6]; Postemergence, 125 g ai/ha) | Velvetleaf plant response rating [6, 13] | Velvetleaf plant response rating [6, 14] | Velvetleaf plant response rating [6, 15] | Plant response rating, Wheat ([7]; Postemergence, 125 g ai/ha) | also measured
1 | CC(C)c1cc[n+]([O-])c([S+]([O-])Cc2c(C(F)(F)F)nn(C)c2OCC(F)(F)F)c1 (centres unmarked) [Compound 104] | 50 | 90 | 40 | 40 | 90 | 80 | 80 | 90 | 90 | 30 | 100 | 50 | 50 | 90 | 90 | 50 | 70 | 40 | 80 | 50 | Barnyardgrass plant response rating [1, 15]: 100; Crabgrass, Large plant response rating [2, 15]: 100; Foxtail, Giant plant response rating [3, 15]: 100; Morningglory plant response rating [4, 15]: 100; Pigweed plant response rating [5, 15]: 100; Wheat plant response rating [7, 13]: 60; Wheat plant response rating [7, 14]: 50; Wheat plant response rating [7, 15]: 100; Plant response rating, Corn ([8]; Postemergence, 125 g ai/ha): 50; Corn plant response rating [8, 13]: 70; Corn plant response rating [8, 14]: 40; Corn plant response rating [8, 15]: 70; Plant response rating, Rice [9, 16]: 10; Plant response rating, Rice [9, 17]: 15; Plant response rating, Sedge, Umbrella [10, 16]: 0; Plant response rating, Sedge, Umbrella [10, 17]: 80; Plant response rating, Ducksalad [11, 16]: 30; Plant response rating, Ducksalad [11, 17]: 80; Plant response rating, Barnyardgrass [12, 16]: 0; Plant response rating, Barnyardgrass [12, 17]: 20
2 | Cn1nc(C(F)(F)F)c(CS(=O)(=O)c2ccc(Cl)c[n+]2[O-])c1OCC(F)(F)C(F)(F)F [Compound 97] | 20 | 70 | 10 | 20 | 60 | 20 | 30 | 70 | 70 | 0 | 0 | 0 | 0 | 20 | 30 | 0 | 30 | 0 | 0 | 0 | Plant response rating, Barnyardgrass ([1]; Preemergence, 500 g ai/ha): 90; Plant response rating, Crabgrass, Large ([2]; Preemergence, 500 g ai/ha): 70; Plant response rating, Foxtail, Giant ([3]; Preemergence, 500 g ai/ha): 80; Plant response rating, Morningglory ([4]; Preemergence, 500 g ai/ha): 20; Plant response rating, Pigweed ([5]; Preemergence, 500 g ai/ha): 30; Wheat plant response rating [7, 13]: 30; Wheat plant response rating [7, 14]: 0; Wheat plant response rating [7, 15]: 0; Plant response rating, Corn ([8]; Postemergence, 125 g ai/ha): 0; Corn plant response rating [8, 13]: 0; Corn plant response rating [8, 14]: 0; Plant response rating, Corn ([8]; Preemergence, 500 g ai/ha): 0; Plant response rating, Rice [9, 16]: 0; Plant response rating, Rice [9, 17]: 30; Plant response rating, Sedge, Umbrella [10, 16]: 0; Plant response rating, Sedge, Umbrella [10, 17]: 0; Plant response rating, Ducksalad [11, 16]: 0; Plant response rating, Ducksalad [11, 17]: 40; Plant response rating, Barnyardgrass [12, 16]: 0; Plant response rating, Barnyardgrass [12, 17]: 0
